Experimental data from US20240299393A1, “SMALL MOLECULE DISRUPTORS OF PROTEIN INTERACTIONS IN HISTONE DEACETYLASE COMPLEXES” (Dana-Farber Cancer Institute, Inc., priority 2021, published 2024).
Values joined by “and” are separate entries in the source; they are usually repeats but may differ in a detail not shown here. Equal entries are not always repeated. “Also recorded” adds a separate entry of the source. Square brackets hold non-standard residues; d marks the D form. Peptide text beside a SMILES is read from it. ξ: configuration not given here. Aoe(9ξ) = N[C@@H](CCCCCC(=O)C1CO1)C(=O)O; dPip = O=C(O)[C@H]1CCCCN1

How the values were obtained:
[1] = tested on: CDKN1A, SOCS3, EGR1 in SK-N-BE(2)-C cells; assay: RT-qPCR of SIN3 HDAC complex-regulated genes in neuroblastoma cells; type: cell-based, human; conditions: 100 μM for 16 h
Protocol: (§1) The RT-qPCR protocol used in this study was described elsewhere [Choi et al 2012]. Culture, RNA extraction, and compound treatments for neuroblastoma SK-N-BE(2)-C cells are described below. Approximately 1 μg RNA per sample was used for reverse transcription. Using a thermocycler, RNA was denatured in the presence of 0.2 μg 18 mer oligo-dT by heating the plate at 65° C. for 10 min. The plate was then immediately cooled down on ice to anneal oligo-dT on the poly-A tail of mRNA. A master mix of AffinityScript Multiple Temperature Reverses Transcriptase (Agilent, cat #600107) was prepared following the manufacturer's protocol, and mixed with RNA samples previously annealed with the oligo-dT. The plate was incubated at 42° C. for 2 h to generate cDNAs from mRNA templates. The reverse transcriptase was then denatured by heating the plate at 70° C. for 15 min. The resulting cDNA was diluted (1:20) in sterile, ultra pure water (ddH2O), and stored at −20° C. until used for qPCR. To measure gene expression, the diluted cDNA was mixed with 5 μL PowerUp SYBR Green master mix (Applied Biosystems, cat #A25743), and the mix of primers (forward+reverse, see FIG. 31; 0.3 μM final concentration) for a total volume of 10 μL. Two technical replicates were generated per cDNA sample in the 384-well PCR plate (Applied Biosystems, cat #4343370). The plate was tightly sealed with optical adhesive film (Applied Biosystems, cat #4311971). Quantitative PCR was conducted with a QuantStudio real-time PCR system from Applied Biosystems, with the following settings: 50° C./2 min, 95° C./10 min, 96° C./15 s/40 cycles, and 60° C./30 s. Dissociation curves were checked for each PCR product, to assess the specificity of the PCR amplicons.
SK-N-BE(2)-C cells were maintained in cell culture flasks supplemented with 10% Fetal bovine serum (FBS) and penicillin/streptomycin (PS) in Dulbecco's Modified Eagle's Medium (DMEM). The cells were maintained at a log phase in a humidified 5% CO2 incubator at 37° C. For testing the effect of the compounds on gene expression, approximately 0.1 million cells were seeded on each well of 24-well cell culture plates, with 1 mL 10% FBS+PS+DMEM. 24 h after seeding the cells, they were exposed to the compounds or DMSO control for 16 h in a humidified 5% CO2 incubator at 37° C., before harvesting them.
Cells were harvested for RNA extraction using Nucleospin 96 RNA (Macherey-Nagel, cat #740709.4) following manufacturer's protocol. Briefly, supernatant was removed, and the cells were gently washed with 1× phosphate-buffered saline. 300 μL lysis buffer were added to each well of 24 well cell culture plates. Roughly 0.1 million cells were used for harvesting each RNA sample. RNA concentration was measured for all purified RNA samples using a nanodrop spectrophotometer.

[2] = target: Sin3 PAH2/Ume6 SID interaction (Saccharomyces cerevisiae, UniProt P22579); assay: biochemical
Protocol: IC50 determination for unlabeled Ume6 SID, E6, E6R and E6S: the concentrations of FITC-Ume6 SID (30 nM), and GST-Sin3 PAH2 (3 μM) were fixed and the compounds were titrated with an HP D300 (Hewlett-Packard, CA) to the assay plate. The assayed concentrations are given here as μM concentrations: 6, 6.6, 8.6, 11.2, 14.7, 19.3, 25.3, 33.1, 43.4, 56.9, 74.5, 97.7, 128, 167.7, 219.7, 287.9, 377.2, 494.2, 647.5 and 848.3.
Using a fluorescence polarization (FP) assay, the interaction between the two minimal domains of Sin3 and Ume6 reported in the literature was measured [Washburn & Esposito 2001, Le Guezennec et al 2006]: the paired amphipathic helix 2 (PAH2; residues 402-473) and the Sin3-interacting domain (SID; residues 516-531), respectively (FIG. 6A). In this FP setting, Sin3 PAH2 is N-terminally fused to a glutathione S-transferase (GST) tag while Ume6 SID is labeled with a fluorescein isothiocyanate (FITC) probe at the N-terminal position. […] The binding affinity of this interaction was evaluated at 0.9 μM, as reflected by the calculated equilibrium dissociation constant, KD.
To examine inhibition of the Sin3-Ume6 interaction by E6 outside of potential interference from other cellular components, an in vitro fluorescence polarization (FP) assay was used.

[3] = target: Sc Sin3 PAH2-Ume6 SID (TAMRA-labeled) interaction (Saccharomyces cerevisiae, UniProt P22579); assay: biochemical
Protocol: Symbols represent individual data points (A) or means with SEM, and lines fitted curves.
IC50 determination for unlabeled Ume6 SID, E6, E6R and E6S: the concentrations of FITC-Ume6 SID (30 nM), and GST-Sin3 PAH2 (3 μM) were fixed and the compounds were titrated with an HP D300 (Hewlett-Packard, CA) to the assay plate.

[4] = tested on: human neuroblastoma SK-N-BE(2)-C xenograft; assay: Neuroblastoma xenograft efficacy study; type: in vivo; conditions: E6R 50 mg/kg, SAHA 20 mg/kg
Protocol: Xenografts studies were performed at the TRACE PDX platform of the Leuven Cancer Institute (LKI) at KU Leuven-UZ Leuven. Treatment experiments included 24 NMRI-Foxlnu nude mice (Taconic) implanted with human neuroblastoma cell line SK-N-BE(2)-C(2 million cells/implant/mouse). Cells, tested for a full panel of murine pathogens (Impact profile I, IDEXX) prior to engraftment, were resuspended in 50% matrigel solution in PBS for injection in the mouse right flank. When tumors reached a volume of approximately 200 mm^3, mice were randomly assigned to vehicle (34% DMSO, 55% saline 0.9%, 5% ethanol, 5% kolliphor, 1% NaOH 1 M), E6R (50 mg/kg), or SAHA (20 mg/kg) treatment groups. Treatments were administered daily intraperitoneally for 10 days or until reaching human endpoint (i.e. tumor volume >1,500 mm^3). Tumors were measured daily with digital calipers, and volume was estimated as V=L×W×H×(π/6) (L: length; W: width; H: height). […] All data were analyzed using GraphPad Prism 8. Comparisons between the vehicle and treated groups were tested for statistical significance using […].

[5] = tested on: DOI-induced head-twitch response (HTR); conditions: literature reports; cited from earlier work
[6] = tested on: HDAC class I and II enzymes (live yeast cells, HeLa nuclear extract, semi-purified human HDAC1); assay: HDAC-Glo I/II luminescence HDAC enzymatic assay; type: biochemical, S. cerevisiae; human; conditions: three HDAC sources
Protocol: The HDAC-Glo I/II screening system (Promega, cat #G6430) was adapted to measure the effect of compounds on the enzymatic activity of human and yeast HDAC sources. […] FLAG-HDAC1 was eluted from anti-FLAG beads before running the assay, using a FLAG peptide. Nuclear extracts from human HeLa cells were provided in the assay kit. HDAC enzymatic activity was measured following the manufacturer's protocol. Briefly, linear ranges of the assay were determined by measuring luminescence signals, in a serial dilution manner, for semi-purified human HDAC1, or live yeast cells, diluted in the HDAC-Glo I/II buffer. For HeLa nuclear extracts, the manufacturer provided this information in the assay kit. For the different HDAC sources, dilution factors corresponding to signals in the linear ranges were used. To test the effect of compounds (three or four replicates) on HDAC enzymatic activity, equal volumes of HDAC sources (5 μL), and inhibitors (5 μL) were added to the different wells of a white, flat bottom 384-well plate. The plate was then briefly centrifuged with a tabletop centrifuge, and gently shaken for 1 min at 700 rpm. The plate was tightly sealed to prevent evaporation, and incubated at room temperature for 1 h. […] Luminescence signals were measured using a TriStar luminometer from Berthold Technologies, with 1 s integration time per sample. […]

[7] = tested on: Rpd3-regulated genes (URS-URA3, INO1, IME2, CAR1, SPO13, TRK2); assay: RT-qPCR of Rpd3-regulated genes in yeast; type: cell-based, S. cerevisiae
Protocol: After yeast cells reached OD600 nm ˜0.5 in 0.8-1 mL of YPD, they were grown for two more hours at room temperature before being centrifuged to remove supernatant and freezing pellets on dry ice. For compound treatments, yeast cells at OD600 nm˜0.5 in YPD were incubated at room temperature for two hours with DMSO (1-1.6%) or the desired compound (from 25 mM stock in 100% DMSO) in an 2 mL-tube for a final volume of 0.8 mL in YPD, before being centrifuged, washed and frozen as described above. Yeast cells were then harvested for RNA extraction using a RiboPure RNA Purification Kit (Invitrogen, cat #AM1926), which involves mechanical cell wall disruption, phenol extraction of the lysate, and RNA purification using glass fiber, and filter-based RNA purification columns. RNA concentration was measured for individually purified RNA samples using a NanoDrop spectrophotometer. A total of 1 μg RNA from each sample was used for reverse transcription following a published procedure [Choi, S. G. et al 2012].
as §1
Expression of gene X normalized to the control gene expression=k*1.96^(Ct^Control^−Ct^Test^) • where k is an arbitrary multiplier (k=1000 in this study), 1.96 is the PCR amplification efficiency constant, Ct is the cycle threshold, CtControl is the Ct value for the housekeeping gene used as control (UBC6 in yeast [Teste et al 2009]; RPS11 in human cells [Zhan et al 2014], and CtTest is the Ct value for the tested gene. Replicates corresponding to DMSO treatments or WT yeast cells were averaged and other data points normalized using those DMSO or WT values as references (i.e. expression relative to DMSO or WT). TAF10 in yeast or SNRPD3 in human cells were used as genes not known for being regulated by an HDAC complex (HDAC-unrelated genes).

[8] = tested on: Rpd3-sensitive acid phosphatase activity; assay: Yeast acid phosphatase plate assay; type: cell-based, S. cerevisiae; conditions: phosphate-rich (high Pi) medium
Protocol: The acid phosphatase plate assay was implemented as previously described [To et al 1973, Loewith et al 2001], with minor modifications. Cells were grown on high Pi medium (see above) for 2 days, at 30° C. A staining solution containing 2 mg/mL of 1-naphtyl phosphate (Sigma, N5602) and 4 mg/mL fast blue B salt (Sigma, D9805) was then prepared in 50 mM sodium acetate buffer pH 4.0±0.1, and maintained at 50° C. for ˜30 min before being filtered. Meanwhile, a solution of 10 mg/mL (1% weight/volume) ultra pure low melting point (LMP) agarose (Invitrogen, 15517-022) was prepared in 50 mM sodium acetate buffer pH 4.0±0.1, by microwaving the suspension until complete dissolution of the powder. The volume of the agarose solution was checked and readjusted with 50 mM sodium acetate buffer pH 4.0±0.1. The agarose solution was then mixed with the filtered staining solution by vortexing briefly, and the resulting suspension was kept at 50° C. for ˜15 min. The solid agar plate on which cells grew for 2 days were then gently overlaid with the agarose-containing staining solution, allowing its gelification on top of the cells. A red coloring started to appear ˜2 min after covering cells with the solution.

[9] = tested on: cycloheximide (CYH) sensitivity; assay: Yeast cycloheximide sensitivity at 37° C.; type: cell-based, S. cerevisiae
Protocol: For assessment of cycloheximide (CYH) sensitivity at 37° C., yeast cells with the cyh2^R genotype (FIG. 29) were first transformed with an empty pDEST-AD-TRP1-CYH2 plasmid (FIG. 30) before running the different experiments. Selection of the plasmid was maintained by culturing cells in SC-W medium.

[10] = Mouse liver microsome stability test; type: in vitro ADME; conditions: 1 mg/mL hepatic microsomes
Protocol: Mouse liver microsome (MLM) half-life measurements were performed by Scripps Florida Pharmacology Core, according to their protocols [Lamberto et al 2017]. 1 mg/mL hepatic microsomes was used to test compounds.
To assess whether E6R may be suitable for testing the effect of HDAC inhibition via new mechanisms in mouse, the half-life […] and intrinsic clearance (Clint) of this compound was first measured using a standard microsomal metabolic assay where sunitinib was used as a control [Lamberto et al 2017]. In this setting, compound degradation is induced by concentrated microsomes isolated from mouse liver. In particular, these hepatic extracts contain the cytochrome P450 system that is primarily responsible for first pass metabolism in vivo.

Sin3 PAH2/Ume6 SID interaction, sequence (P22579 402-473): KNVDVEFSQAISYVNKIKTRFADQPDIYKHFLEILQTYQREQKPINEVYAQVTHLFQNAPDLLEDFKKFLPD
Sc Sin3 PAH2-Ume6 SID (TAMRA-labeled) interaction, sequence (P22579 402-473): as above

In the case of `C[C@H](NC(=O)c1c(O)n2ccccc2nc1=O)c1ccccc1` [E6S], the “effect on expression of CDKN1A, SOCS3 and EGR1” value (“effect on expression of CDKN1A” below) [1] is reported as “only perturbed expression of two of the tested downstream genes”, the IC50 [2] is reported as 155 µM and 174 µM and the Ki ([2]; inhibitory concentration (Ki), from Example 6 IC50, assuming competitive inhibition) is reported as ~30 µM. For the same compound, the Ki ([2]; inhibitory concentrations (Ki), from Example 6A IC50, assumption of competitive inhibition) was 38.5 µM and the IC50 [3] was 597 µM.

For `O=C(CCCCCCC(=O)Nc1ccccc1)NO` [SAHA, suberoylanilide hydroxamic acid, reference compound], the “effect on expression of CDKN1A” value [1] was “derepressed”, the “tolerability and body weight of xenografted mice” value ([4]; daily) was “did not affect mice weight; also recorded: well-tolerated” and the “growth of neuroblastoma tumors compared to vehicle” value ([4]; daily intraperitoneally 10 days) was “significantly reduced the growth”. For the same compound, the “head-twitch behavior after chronic treatment” value [5] was “reduced DOI-induced head-twitch behavior in WT, but not in HDAC2 cKO mice; also recorded: reduces head-twitch response (HTR) behavior”.

With `O=C(CCCCC[C@@H]1NC(=O)[C@H]2CCCCN2C(=O)[C@H](Cc2ccccc2)NC(=O)[C@H](Cc2ccccc2)NC1=O)C1CO1` (stereo partly shown) [TRX, trapoxin A] (cyclo(FF[dPip][Aoe(9ξ)])) the “effect on expression of CDKN1A” value [1] was “derepressed”, the “inhibition of HDAC enzymatic activity” value [6] was “systematically reduced HDAC activity” and the “effect on CAR1 and SPO13 expression” value ([7]; 250 μM) was “consistently derepressed”. The “effect on all Rpd3-regulated loci” value ([7]; FIG. 3I) was “activated all Rpd3-regulated loci”, the “Rpd3-sensitive acid phosphatase activity” value [8] was “induced” and the CYH sensitivity [9] was “induced”.

For `CCN(CC)CCNC(=O)c1c(C)[nH]c(/C=C2\C(=O)Nc3ccc(F)cc32)c1C` [sunitinib, reference compound], the “half-life in mouse liver microsomes” value [10] was ~10 min.
